Measured values reported in patent publication US11186583B2, “5-alkylthio-7-[(4-arylbenzyl)amino]-1(2)H-pyrazolo[4,3-d]pyrimidines for treatment of lymphoma” (UNIVERZITA PALACKEHO V OLOMOUCI, priority 2018, dated 2021).
Like-named read-outs stand apart in the source and are kept apart here.

Columns and labels:
[1] = target: T1, CDK4/Cyclin D1 (Homo sapiens, UniProt P11802); assay: CDK4/Cyclin D1 kinase inhibition, [γ-33P]ATP, […] peptide; type: biochemical; conditions: CDK panel, tested at least in duplicates
T1 construct: purchased ProQinase GmbH
T1 sequence (P11802 whole entry): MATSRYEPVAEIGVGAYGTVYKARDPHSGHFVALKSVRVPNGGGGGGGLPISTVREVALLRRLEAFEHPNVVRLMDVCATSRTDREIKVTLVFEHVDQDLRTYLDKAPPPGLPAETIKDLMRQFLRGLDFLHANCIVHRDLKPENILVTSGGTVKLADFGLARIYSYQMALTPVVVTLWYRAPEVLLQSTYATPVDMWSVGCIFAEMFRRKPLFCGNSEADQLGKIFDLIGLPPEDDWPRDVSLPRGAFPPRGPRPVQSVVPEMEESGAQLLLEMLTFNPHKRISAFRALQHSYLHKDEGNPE
T1 sequence (P24385 whole entry partner): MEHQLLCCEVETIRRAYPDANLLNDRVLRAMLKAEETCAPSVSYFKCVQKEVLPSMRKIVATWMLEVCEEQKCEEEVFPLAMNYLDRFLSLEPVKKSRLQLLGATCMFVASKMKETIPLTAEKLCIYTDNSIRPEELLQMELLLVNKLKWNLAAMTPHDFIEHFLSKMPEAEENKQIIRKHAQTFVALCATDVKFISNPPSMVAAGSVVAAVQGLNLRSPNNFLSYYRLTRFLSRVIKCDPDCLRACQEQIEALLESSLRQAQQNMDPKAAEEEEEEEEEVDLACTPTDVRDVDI
Description: (§1) CDK2/Cyclin E and CDK1/Cyclin B kinases were produced in Sf9 insect cells via baculoviral infection and purified on a Ni-NTA column (Qiagen). CDK4/Cyclin D1, CDK5/p35NCK, CDK7/Cyclin H/MAT1 and CDK9/Cyclin T1 were purchased from ProQinase GmbH. The kinases were assayed with 1 mg/mL histone H1 (for CDK1/2/5) or (YSPTSPS)2 KK peptide (for CDK7/CDK9) or […] peptide (for CDK4) in the presence of […] (for CDK1/2/4/5/7/9), 0.05 mCi [γ-33P]ATP and of the test compound in a final volume of […], all in a reaction buffer (60 mM HEPES, NaOH, pH 7.5, 3 mM MgCl2, 3 mM MnCl2, 3 mM Na-orthovanadate, 1.2 mM DTT, 2.5 mg/50 ml PEG20.000). The reactions were stopped by adding […] of 3% aq. H3PO4. Aliquots were spotted onto P-81 phosphocellulose (Whatman), washed 3 times with 0.5% aq. H3PO4 and finally air-dried. Kinase inhibition was quantified using a FLA-7000 digital image analyzer (Fujifilm). The concentration of the test compounds required to decrease the CDK activity by 50% was determined from dose response curves and designated as IC50.

[2] = target: T2, CDK9/Cyclin T1 (Homo sapiens, UniProt P50750); assay: CDK9/Cyclin T1 kinase inhibition, [γ-33P]ATP, (YSPTSPS)2 KK peptide; type: biochemical; conditions: CDK panel, tested at least in duplicates
T2 construct: purchased ProQinase GmbH
T2 sequence (P50750 whole entry): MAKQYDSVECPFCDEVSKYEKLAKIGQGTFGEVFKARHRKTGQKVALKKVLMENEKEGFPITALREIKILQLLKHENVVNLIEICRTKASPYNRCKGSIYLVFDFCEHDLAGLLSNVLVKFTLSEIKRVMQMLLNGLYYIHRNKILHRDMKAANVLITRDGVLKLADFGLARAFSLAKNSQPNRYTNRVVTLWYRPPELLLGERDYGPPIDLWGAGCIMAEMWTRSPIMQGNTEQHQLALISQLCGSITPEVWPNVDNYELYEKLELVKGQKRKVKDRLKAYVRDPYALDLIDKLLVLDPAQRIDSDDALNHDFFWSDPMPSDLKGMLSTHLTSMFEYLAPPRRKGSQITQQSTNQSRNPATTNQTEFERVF
T2 sequence (O60563 whole entry partner): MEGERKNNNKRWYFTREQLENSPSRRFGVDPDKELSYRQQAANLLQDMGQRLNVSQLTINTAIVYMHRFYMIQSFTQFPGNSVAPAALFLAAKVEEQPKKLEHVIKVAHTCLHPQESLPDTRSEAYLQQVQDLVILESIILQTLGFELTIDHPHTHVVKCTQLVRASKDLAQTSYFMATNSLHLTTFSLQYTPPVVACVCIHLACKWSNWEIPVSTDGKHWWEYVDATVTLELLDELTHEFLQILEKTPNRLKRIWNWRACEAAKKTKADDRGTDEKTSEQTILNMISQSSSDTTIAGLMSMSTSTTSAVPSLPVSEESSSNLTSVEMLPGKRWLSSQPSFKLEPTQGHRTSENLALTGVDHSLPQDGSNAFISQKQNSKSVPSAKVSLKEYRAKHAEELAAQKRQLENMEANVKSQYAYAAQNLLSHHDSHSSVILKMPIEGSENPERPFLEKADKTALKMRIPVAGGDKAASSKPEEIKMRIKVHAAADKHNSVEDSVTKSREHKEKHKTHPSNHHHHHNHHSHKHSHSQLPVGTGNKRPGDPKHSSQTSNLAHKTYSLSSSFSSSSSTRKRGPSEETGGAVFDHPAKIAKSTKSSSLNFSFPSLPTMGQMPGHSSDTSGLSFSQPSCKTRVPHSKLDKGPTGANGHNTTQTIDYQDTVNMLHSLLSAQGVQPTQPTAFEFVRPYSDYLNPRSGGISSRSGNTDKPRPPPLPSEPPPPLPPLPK
Description: as §1

[3] = tested on: HT (diffuse large B-cell lymphoma, subtype—germinal center B-cell); assay: MTT cytotoxicity assay, HT lymphoma cell line; type: cell-based; conditions: Homo sapiens, 72 h, HT cells, three days, read-out: Lymphoma cell lines GI50, HT
Excerpt: (§2) Cytotoxicity of the compounds is the major property determining their anti-lymphoma efficacy in vitro. One of the parameters used, as the basis for cytotoxicity assays, is the metabolic activity of viable cells. For example 2, a microtiter assay, which uses (3-(4,5-dimethylthiazol-2-yl)-2,5-diphenyltetrazolium bromide (MTT), is widely used to quantitate cell proliferation and cytotoxicity. This assay is widely used in drug screening programs and in chemosensitivity testing. Because only metabolically active living cells reduce MTT to correspond purple formazan dye, these assays detect viable cells exclusively. The quantity of reduced MTT corresponds to the number of vital cells in the culture.
(§3) The compounds were assayed using the following lymphoma cell lines: HT (diffuse large B-cell lymphoma, subtype—germinal center B-cell), OCI-LY2 (diffuse large B-cell lymphoma, subtype—germinal center B-cell), MINO (mantle cell lymphoma). All cell lines were grown in RPMI medium supplemented with fetal bovine serum and glutamine and maintained at 37° C. in a humidified atmosphere with 5% CO2. For cytotoxicity assays, 5000-10000 cells were seeded into each well of 96 well plate, allowed to stabilize for at least 8 h and then tested compounds were added at various concentrations ranging from 100 to 0.01 μM in triplicates. After three days, MTT solution (5 mg/ml; Sigma, St. Louis, USA) was added to cells and medium was replaced with DMSO after five hours. The absorbance was measured at 620 nm by employing a microplate reader. MTT assays were repeated 3 times for each drug application and untreated cells were used as reference. The GI50 values, drug concentrations lethal to 50% of the cells, were calculated from the obtained dose response curves.

[4] = tested on: OCI-LY2 (diffuse large B-cell lymphoma, subtype—germinal center B-cell); assay: MTT cytotoxicity assay, OCI-LY2 lymphoma cell line; type: cell-based; conditions: 72 h, OCI-LY2 cells, three days, read-out: Lymphoma cell lines GI50, OCI-LY2
Excerpt: as §2, §3

[5] = tested on: MINO (mantle cell lymphoma); assay: MTT cytotoxicity assay, MINO lymphoma cell line; type: cell-based; conditions: Homo sapiens, 72 h, MINO cells, three days, read-out: Lymphoma cell lines GI50, MINO
Excerpt: as §2, §3

[6] = target: T3, CDK2/Cyclin E (Homo sapiens, UniProt P24941); assay: CDK2/Cyclin E kinase inhibition, [γ-33P]ATP, histone H1; type: biochemical
T3 construct: made in house; host or cells: Sf9 insect cells (baculovirus)
Description: CDK2/Cyclin E and CDK1/Cyclin B kinases were produced in Sf9 insect cells via baculoviral infection and purified on a Ni-NTA column (Qiagen). CDK4/Cyclin D1, CDK5/p35NCK, CDK7/Cyclin H/MAT1 and CDK9/Cyclin T1 were purchased from ProQinase GmbH. […] The reactions were stopped by adding 5 mL of 3% aq. H3PO4. Aliquots were spotted onto P-81 phosphocellulose (Whatman), washed 3 times with 0.5% aq. H3PO4 and finally air-dried. Kinase inhibition was quantified using a FLA-7000 digital image analyzer (Fujifilm). The concentration of the test compounds required to decrease the CDK activity by 50% was determined from dose response curves and designated as IC50.

[7] = Table 3, read-out: Enzyme inhibition IC50 CDK2/E
[8] = Table 4, read-out: CDK2/E inhibition IC50

SMILES | IC50 [6, 7] [nM] | IC50 [6, 8] [nM] | GI50 [3] [nM] | GI50 [4] [nM] | GI50 [5] [nM] | further results
CC[C@@H](CO)Nc1nc(NCc2ccc(-c3ccccn3)cc2)c2ncn(C(C)C)c2n1 [CR8, (2S)-2-[[9-propan-2-yl-6-[(4-pyridine-2-ylphenyl)methylamino]purin-2-yl]amino]butan-1-ol] | – | – | – | – | – | IC50 [1]: 26100 nM; IC50 [2]: 272 ± 38 nM
CC(C)c1n[nH]c2c(NCc3ccc(-c4ccccn4)cc3)nc(SC3OC(CO)C(O)C(O)C3O)nc12 [Compound 4.22, 5-β-D-Thioglucosid-3-isopropyl-7-[4-(2-pyridyl)benzyl]amino-1(2)H-pyrazolo[4,3-d]pyrimidine] | 363 | – | 8070 | 25200 | 21600 | –
CC(C)c1n[nH]c2c(NCc3ccc(-c4ccccn4)cc3)nc(SCCN)nc12 [Compound 4.9, 5-(2-Amino-1-ethyl)thio-3-isopropyl-7-[4-(2-pyridyl)benzyl]amino-1(2)H-pyrazolo[4,3-d]pyrimidine] | 4 | – | 40 | 46 | 29 | IC50 ([6]; CDK panel, tested at least in duplicates, read-out: IC50 CDK2): 5 ± 1 nM

The next lines start with results.

IC50 [6, 7] [nM] | IC50 [6, 8] [nM] | SMILES | GI50 [3] [nM] | GI50 [4] [nM] | GI50 [5] [nM] | further results
– | 37 | CC(O)CSc1nc(NCc2ccc(-n3cccn3)cc2)c2n[nH]c(C(C)C)c2n1 (centres unmarked) [Compound 4.81, 5-(2-Hydroxy-1-propyl)thio-3-isopropyl-7-[4-(pyrazol-1-yl)benzyl]amino-1(2)H-pyrazolo[4,3-d]pyrimidin] | – | – | – | –
– | 10 | CC(C)c1n[nH]c2c(NCc3ccc(-n4ccnc4)cc3)nc(SCCO)nc12 [Compound 4.50, 5-(2-Hydroxy-1-ethyl)thio-3-isopropyl-7-[4-(imidazol-1-yl)benzyl]amino-1(2)H-pyrazolo[4,3-d]pyrimidine] | – | – | – | –
320 | – | CC(C)c1n[nH]c2c(NCc3ccc(-c4ccccn4)cc3)nc(SCCS)nc12 [Compound 4.35, 5-(2-sulfanylethyl)thio-3-isopropyl-7-[4-(2-pyridyl)benzyl]amino-1(2)H-pyrazolo[4,3-d]pyrimidine] | – | – | – | –
